Test results as given in patent publication US20200179415A1, “HIGHLY ACTIVE DRUG COMBINATION FOR TREATMENT OF HEPATITIS C VIRUS” (Atea Pharmaceuticals, Inc., priority 2018, published 2020).
Where a name gives a salt, the structure may show the parent alone.

How the values were obtained:
[1] = tested on: HCV GT1 or HCV GT3; settings: CPA cirrhosis, QD for seven days; cited from earlier work
[2] = tested on: HCV GT3; settings: non-cirrhotic patients, 600 mg QD, seven days; cited from earlier work
[3] = tested on: HCV GT1; settings: non-cirrhotic patients, 600 mg QD, seven days; cited from earlier work
[4] = tested on: GT1b_3a-NS5B chimeric HCV replicon; assay: microbe, parasite or virus in culture; type: cell-based; settings: Hepatitis C virus, Huh-7, 72 h, read-out: Individual EC50
Procedure: (§1) Huh7 cells were maintained in DMEM supplemented with 10% FBS, 1% NEAA, 1% L-Glutamine and 1% Penicillin-Streptomycin. The stable HCV GT1a and 1b replicon cells were generated by transfection of Huh7 cells with in vitro transcribed HCV replicon RNA transcripts from replicon DNA constructs and were selected with 250 μg/ml of G418. The GT1b/3a NS5B chimeric replicons were constructed with the GT1b replicon as a backbone. GT1b/3a NS5B replicon RNAs were in vitro transcribed using the replicon plasmid DNAs and used to transiently transfect Huh7 cells by electroporation.
(§2) The final concentration of DMSO in the cell culture medium was 0.5%. Compounds were individually tested for their inhibitory activity in stably-transfected GT1a and GT1b replicons and in transiently-transfected GT1b/3a NS5B chimeric replicons in duplicate at 9 concentrations with a series of 4-fold dilutions starting at 10,000 nM. Replicon cells were seeded (8,000 cells/well for GT1a and 1b; 10,000 cells/well for GT1b/3a NS5B) in 96-well plates containing serially diluted compounds and cultured at 37° C. and 5% CO2 for 3 days. CellTiter-Fluor was used to detect the fluorescence signal and the raw data (RFU) was used for calculating cell viability using the equation below: […]
(§3) where CPD is a signal from a well containing a test compound, ZPE is the average of signals from DMSO control wells and HPE is the average of signals from medium control wells.
(§4) The data were analyzed using CompuSyn software (ComboSyn, Inc., Paramus, N.J.) to obtain the concentrations of the individual compounds required to achieve 50% cytotoxicity (CC50) and 50% (EC50) and 90% (EC90) antiviral efficacy. […]
(§5) In Example 6, Huh7 cells were transiently transfected with replicon RNA by electroporation and seeded at a density of 10,000 cells/well in 96-well plates. HCV GT1a and GT1b replicons stable cells were seeded at a density of 8,000 cells/well in 96-well plates. […]

[5] = tested on: HCV GT1b replicon; assay: microbe, parasite or virus in culture; type: cell-based; settings: Hepatitis C virus, Huh-7, 72 h, stable replicon in Huh7 cells, 3 days, read-out: Individual EC50
Procedure: as §1, §2, §3, §4, §5

[6] = tested on: HCV GT1a replicon; assay: microbe, parasite or virus in culture; type: cell-based; settings: Hepatitis C virus, Huh-7, 72 h, stable replicon in Huh7 cells, 3 days, read-out: Individual EC50
Procedure: as §1, §2, §3, §4, §5

[7] = Hygroscopicity in climatic cabinet; type: physicochemical
Procedure: Compound 2-A was characterized by ^1HNMR, ^13CNMR, FI-IR, and mass spectrum in addition to XRPD (FIG. 1A) and differential scanning calorimetry (DSC) (FIG. 1B). The hygroscopicity was measured by placing a sample in a climatic cabinet set at 25±1° C./80±2% RH for 24 hours. The water content was increased from 3.3% to 9.4%.

[8] = Stability of Compound 2-A in stability chambers; type: physicochemical
Procedure: The stability of Compound 2-A was measured under three different conditions: 1) open container; 2) PE/ALU bag where the PE bag is closed with clips and the ALU bag is sealed by thermos-sealing; and 3) PE/ALU bag with desiccant where the PE bag is closed with plastic clip, the ALU bag is sealed by the thermos-sealing, and 10 g of silica gel is placed between the bags. The open container conditions were conducted with two different batches of Compound 2-A. The results of the stability studies are shown in Table 5A, Table 5B, Table 6, and Table 7.

[9] = 25° C./60% RH and 40° C./75% RH
[10] = Batch No. 1, open container, 25° C./60% RH, 7 days
[11] = Batch No. 1, open container, 25° C./60% RH, 14 days
[12] = Batch No. 1, open container, 25° C./60% RH, 28 days
[13] = Batch No. 1, open container, 30° C./65% RH, 7 days
[14] = Batch No. 1, open container, 30° C./65% RH, 14 days
[15] = Batch No. 1, open container, 30° C./65% RH, 28 days
[16] = Batch No. 1, open container, 40° C./75% RH, 7 days
[17] = Batch No. 1, open container, 40° C./75% RH, 14 days
[18] = Batch No. 1, open container, 40° C./75% RH, 28 days
[19] = Batch No. 1, open container, Initial
[20] = Batch No. 2, PE/ALU bag, 25° C./60% RH, 7 days
[21] = Batch No. 2, PE/ALU bag, 25° C./60% RH, 16 days
[22] = Batch No. 2, PE/ALU bag, 40° C./75% RH, 7 days
[23] = Batch No. 2, PE/ALU bag, 40° C./75% RH, 16 days
[24] = Batch No. 2, PE/ALU bag, Initial
[25] = Batch No. 2, PE/ALU with desiccant, 25° C./60% RH, 7 days
[26] = Batch No. 2, PE/ALU with desiccant, 25° C./60% RH, 16 days
[27] = Batch No. 2, PE/ALU with desiccant, 40° C./75% RH, 7 days
[28] = Batch No. 2, PE/ALU with desiccant, 40° C./75% RH, 16 days
[29] = Batch No. 2, PE/ALU with desiccant, Initial
[30] = Batch No. 2, open container, 25° C./60% RH, 7 days
[31] = Batch No. 2, open container, 25° C./60% RH, 16 days
[32] = Batch No. 2, open container, 30° C./65% RH, 7 days
[33] = Batch No. 2, open container, 30° C./65% RH, 16 days
[34] = Batch No. 2, open container, 40° C./75% RH, 7 days
[35] = Batch No. 2, open container, 40° C./75% RH, 16 days
[36] = Batch No. 2, open container, Initial

Compound: CNc1nc(N)nc2c1ncn2[C@@H]1O[C@H](CO[P@@](=O)(N[C@@H](C)C(=O)OC(C)C)Oc2ccccc2)[C@@H](O)[C@@]1(C)F [Compound 1-A, hemi-sulfate salt of isopropyl((S)-(((2R,3R,4R,5R)-5-(2-amino-6-(methylamino)-9H-purin-9-yl)-4-fluoro-3-hydroxy-4-methyltetrahydrofuran-2-yl)methoxy)(phenoxy)phosphoryl)-L-alaninate]
- mean maximum HCV RNA reduction [1]: 4.4 log10 IU/mL
- mean maximum HCV RNA reduction [2]: 4.6 log10 IU/mL
- mean maximum HCV RNA reduction [3]: 4.4 log10 IU/mL
- EC50 [4]: 1.68 nM
- EC50 [5]: 2.69 nM
- EC50 [6]: 2.83 nM

Compound: COC(=O)N[C@H](C(=O)N1CCC[C@H]1c1nc(-c2ccc(-c3ccc(-c4c[nH]c([C@@H]5CCCN5C(=O)[C@@H](NC(=O)OC)C(C)C)n4)c4c3OCO4)cc2)c[nH]1)C(C)C [Compound 2, methyl N-[(2S)-1-[(2S)-2-[5-[4-[7-[2-[(2S)-1-[(2 S)-2-(methoxycarbonylamino)-3-methylbutanoyl]pyrrolidin-2-yl]-1H-imidazol-5-yl]-1,3-benzodioxol-4-yl]phenyl]-1H-imidazol-2-yl]pyrrolidin-1-yl]-3-methyl-1-oxobutan-2-yl]carbamate]
- EC50 [4]: 0.0029 nM
- EC50 [5]: 0.014 nM
- EC50 [6]: 0.03 nM

Compound: COC(=O)N[C@H](C(=O)N1CCC[C@H]1c1nc(-c2ccc(-c3ccc(-c4c[nH]c([C@@H]5CCCN5C(=O)[C@@H](NC(=O)OC)C(C)C)n4)c4c3OCO4)cc2)c[nH]1)C(C)C [Compound 2-A]
- water content ([7]; after 24 hours at 25±1° C./80±2% RH): 9.4%
- water content ([7]; before storage): 3.3%
- purity change [8, 9]: not changed
- water content change [8, 9]: slowly increased
- Appearance [8, 10]: Pale-yellow solid
- Purity (HPLC) [8, 10]: 98.45%
- Water (KF) [8, 10]: 6.14%
- XRPD [8, 10]: Consistent
- Appearance [8, 11]: Pale-yellow solid
- Purity (HPLC) [8, 11]: 98.61%
- Water (KF) [8, 11]: 6.28%
- Appearance [8, 12]: Pale-yellow solid
- Purity (HPLC) [8, 12]: 98.58%
- Water (KF) [8, 12]: 5.95%
- Appearance [8, 13]: Pale-yellow solid
- Purity (HPLC) [8, 13]: 98.40%
- Water (KF) [8, 13]: 6.73%
- XRPD [8, 13]: Consistent
- Appearance [8, 14]: Pale-yellow solid
- Purity (HPLC) [8, 14]: 98.47%
- Water (KF) [8, 14]: 6.80%
- Appearance [8, 15]: Pale-yellow solid
- Purity (HPLC) [8, 15]: 98.59%
- Water (KF) [8, 15]: 6.49%
- Appearance [8, 16]: Pale-yellow solid
- Purity (HPLC) [8, 16]: 98.45%
- Water (KF) [8, 16]: 7.13%
- XRPD [8, 16]: Consistent
- Appearance [8, 17]: Pale-yellow solid
- Purity (HPLC) [8, 17]: 98.51%
- Water (KF) [8, 17]: 7.67%
- Appearance [8, 18]: Pale-yellow solid
- Purity (HPLC) [8, 18]: 98.53%
- Water (KF) [8, 18]: 6.96%
- Appearance [8, 19]: Pale-yellow solid
- Purity (HPLC) [8, 19]: 98.39%
- Water (KF) [8, 19]: 3.11%
- XRPD [8, 19]: Crystalline
- Appearance [8, 20]: White powder
- Purity (HPLC) [8, 20]: 99.36%
- Water (KF) [8, 20]: 5.18%
- Appearance [8, 21]: White powder
- Purity (HPLC) [8, 21]: 99.41%
- Water (KF) [8, 21]: 5.56%
- Appearance [8, 22]: White powder
- Purity (HPLC) [8, 22]: 99.37%
- Water (KF) [8, 22]: 5.42%
- Appearance [8, 23]: White powder
- Purity (HPLC) [8, 23]: 99.42%
- Water (KF) [8, 23]: 5.91%
- Appearance [8, 24]: White powder
- Purity (HPLC) [8, 24]: 99.39%
- Water (KF) [8, 24]: 4.48%
- Appearance [8, 25]: White powder
- Purity (HPLC) [8, 25]: 99.38%
- Water (KF) [8, 25]: 5.46%
- Appearance [8, 26]: White powder
- Purity (HPLC) [8, 26]: 99.41%
- Water (KF) [8, 26]: 5.83%
- Appearance [8, 27]: White powder
- Purity (HPLC) [8, 27]: 99.37%
- Water (KF) [8, 27]: 5.51%
- Appearance [8, 28]: White powder
- Purity (HPLC) [8, 28]: 99.42%
- Water (KF) [8, 28]: 6.90%
- Appearance [8, 29]: White powder
- Purity (HPLC) [8, 29]: 99.39%
- Water (KF) [8, 29]: 4.48%
- Appearance [8, 30]: White powder
- Purity (HPLC) [8, 30]: 99.37%
- Water (KF) [8, 30]: 6.01%
- Appearance [8, 31]: White powder
- Purity (HPLC) [8, 31]: 99.41%
- Water (KF) [8, 31]: 7.69%
- Appearance [8, 32]: White powder
- Purity (HPLC) [8, 32]: 99.38%
- Water (KF) [8, 32]: 7.50%
- Appearance [8, 33]: White powder
- Purity (HPLC) [8, 33]: 99.41%
- Water (KF) [8, 33]: 6.98%
- Appearance [8, 34]: White powder
- Purity (HPLC) [8, 34]: 99.38%
- Water (KF) [8, 34]: 7.96%
- Appearance [8, 35]: White powder
- Purity (HPLC) [8, 35]: 99.42%
- Water (KF) [8, 35]: 7.03%
- Appearance [8, 36]: White powder
- Purity (HPLC) [8, 36]: 99.39%
- Water (KF) [8, 36]: 4.48%
